Laboratory results reported in patent publication US11512290B2, “Compositions and methods for cellular reprogramming” (Duke University, priority 2018, dated 2022).
Entries after “also recorded” stand apart in the source; their conditions may differ. {ppp} = triphosphate

Key:
Type in all cases: cell-based, Mouse (C57BL/6)
[1] = system: neonatal cardiac fibroblasts; test: qPCR of cardiomyocyte sarcomere (maturation) genes in miR combo reprogrammed fibroblasts; settings: for cardiomyocyte maturation (expression of Actn2, Myh6, Tnni3, Cacna1c): miR combo or negmiR transfected, various concentrations of ICR for 4 days, gene expression at day 14
Method: (§1) Mouse (C57BL/6) neonatal cardiac fibroblasts were isolated from 2 day old mouse neonates according to the method outlined in Jayawardena et al. Following isolation fibroblasts were cultured in growth media containing DMEM (ATCC, Catalogue number 30-2002) supplemented with 15% v/v FBS (Thermo Scientific Hyclone Fetal bovine serum, Catalogue number SH30071.03, Lot number AXK49952) and 1% v/v penicillin/streptomycin (Gibco, Catalogue number 15140-122, 100 units Penicillin, 100 ug/ml Streptomycin). Fibroblasts were passaged once the cells had reached 70-80% confluence using 0.05% w/v trypsin (Gibco, Catalogue number 25300-054). Freshly isolated fibroblasts were labelled as Passage 0. Experiments were conducted with cells at passage 2. For all experiments, cells were seeded at 5000 cells/cm^2 in growth media. After 24 hours, the cells were transfected with transfection reagent alone (Dharmafect-I, ThermoScientific), with transfection reagent plus non-targeting microRNAs (negmiR), or with transfection reagent plus our previously reported combination of cardiac reprogramming microRNAs[9] (miR combo, miR-1, miR-133, miR-208, miR-499).
qPCR: Total RNA was extracted using Quick-RNA MiniPrep Kit according to the manufacturer's instructions (Zymo Research). Total RNA (50 ng-100 ng) was converted to cDNA using a high capacity cDNA reverse transcription kit (Applied Biosystems). cDNA was used in a standard qPCR reaction involving FAM conjugated gene specific primers and TaqMan Gene Expression Master Mix (Applied Biosystems). The following primers were used for qPCR: Gapdh (Mm99999915_m1), Tnni3 (Mm00437164_m1), Actn2 (Mm00473657_m1), Myh6 (Mm00440359_m1), Cacna1c (Mm00437917_m1), Mef2C (Mm01340482_m1), Tbx5 (Mm00803518_m1), Gata4 (Mm00484689_m1) and Hand2 (Mm00439247 m1).

[2] = system: neonatal cardiac fibroblasts; test: Generating beating reprogrammed cardiomyocytes (count of beating colonies)
Method: Isolated mouse (C57BL/6) neonatal cardiac fibroblasts (passage 2) were seeded into 12-well dishes at […] in growth media. Twenty-four hours later growth media was removed and the cells transfected with negmiR or miR combo as described above. One day later, the transfection complexes were removed and media was replaced with a chemically defined reprogramming media[12] that contained 1 ug/ml Poly(I:C) (LMW). For the next four days, cells received fresh chemically defined reprogramming media containing 1 ug/ml Poly(I:C) (LMW) daily. After this period, the cells received chemically defined reprogramming media without Poly(I:C) (LMW) for a further 10 days. Media was replaced every other day. Beating colonies were identified with a Zeiss Axiovert 200 inverted microscope.

[3] = system: neonatal cardiac fibroblasts; test: Actn2 (α-sarcomeric actinin) immunofluorescence of reprogrammed fibroblasts
Method: as §1
Cells were fixed with 2% v/v paraformaldehyde (EMS) as described previously. Fixed cells were blocked in antibody buffer (5% w/v BSA, 0.1% v/v Tween-20, in PBS) for 1 hr at room temperature. Following blocking, cells were incubated overnight at 4° C. with a-sarcomeric actinin antibody (Sigma, A7811, 1:100) in antibody buffer. After the overnight incubation, cells were washed three times in antibody buffer. Following washing, cells were incubated with Alexa-Fluor conjugated secondary antibodies (Invitrogen, Goat Anti-mouse 594 nm) at a 1:500 dilution in antibody buffer for 1 hr at room temperature. Nuclei were stained by DAPI at 1 μg/ml for 30 minutes at room temperature in antibody buffer. Following washing in PBS to remove unbound complexes, immunofluorescence was measured using a Zeiss Axiovert 200 inverted microscope.

[4] = system: neonatal cardiac fibroblasts; test: qPCR of cardiomyocyte-lineage commitment factors (initiation phase of cardiac reprogramming); settings: TLR3 agonist Poly(I:C) LMW for 3 days after transfection, FIGS. 2Bi-2Biv
Method: as §1
qPCR: Total RNA was extracted using Quick-RNA MiniPrep Kit according to the manufacturer's instructions (Zymo Research). […]

TLR3 = biological target: T1, TLR3 (Mus musculus, UniProt Q99MB1); test: IL6 ELISA: TLR3 activity measured as IL6 secretion into the media; settings: CU-CPT-4a added one day post-transfection
T1 construct: neonatal cardiac fibroblasts were transfected with negmiR or miR combo; endogenous in cells; host or cells: mouse (C57BL/6) neonatal cardiac fibroblasts, passage 2
T1 sequence (Q99MB1 26-905): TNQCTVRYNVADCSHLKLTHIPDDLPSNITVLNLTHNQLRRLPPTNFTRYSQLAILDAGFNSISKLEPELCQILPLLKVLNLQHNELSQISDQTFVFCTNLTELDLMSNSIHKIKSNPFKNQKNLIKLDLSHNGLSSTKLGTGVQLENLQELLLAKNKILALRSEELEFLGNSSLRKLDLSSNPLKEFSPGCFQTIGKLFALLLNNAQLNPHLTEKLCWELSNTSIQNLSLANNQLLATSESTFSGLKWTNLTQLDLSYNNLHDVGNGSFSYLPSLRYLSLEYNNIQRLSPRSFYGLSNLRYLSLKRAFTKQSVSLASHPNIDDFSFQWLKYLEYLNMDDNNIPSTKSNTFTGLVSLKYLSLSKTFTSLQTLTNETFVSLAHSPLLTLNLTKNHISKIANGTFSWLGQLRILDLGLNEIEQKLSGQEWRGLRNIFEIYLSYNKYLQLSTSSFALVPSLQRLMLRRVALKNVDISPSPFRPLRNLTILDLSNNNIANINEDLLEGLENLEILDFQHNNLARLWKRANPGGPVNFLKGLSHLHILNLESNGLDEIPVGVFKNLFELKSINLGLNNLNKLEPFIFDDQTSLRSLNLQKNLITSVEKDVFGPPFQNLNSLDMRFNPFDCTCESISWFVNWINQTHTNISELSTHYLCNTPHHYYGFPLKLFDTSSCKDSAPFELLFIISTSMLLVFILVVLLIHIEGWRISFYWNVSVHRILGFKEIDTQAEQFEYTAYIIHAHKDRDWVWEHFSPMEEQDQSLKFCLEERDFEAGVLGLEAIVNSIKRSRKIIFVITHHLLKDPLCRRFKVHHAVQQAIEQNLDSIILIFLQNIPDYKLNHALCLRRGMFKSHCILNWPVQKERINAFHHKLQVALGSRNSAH
Method: IL6 ELISA kits were from R&D Systems. Fresh media (1 ml) was added to the cells one day prior to assaying for IL6. Per manufacturer's instructions 50 ul of media was assayed and the amount of IL6 in pg/ml in the culture media was determined via a standard curve. The IL6 pg/ml value was then adjusted for the total volume of the media (1 ml) and the total cellular protein in each well to correct for differences in cell number.
To test this further we transfected cells with microRNAs and assessed TLR3 activity by measuring IL6 secretion into the media. IL6 secretion is an accepted measurement of the activity of TLRs, including TLR3 [30-37]. […] Targeted knockdown of TLR3 or Ikbkb inhibited miR combo induced IL6 secretion; further validating that miR combo activated the TLR3-NFκB pathway (FIG. 6B).

## Poly(I:C)
[1]; Poly(I:C) LMW for 4 days after miR combo transfection, then 10 days growth media
  effect of miR combo upon Myh6, Actn2 and Tnni3 expression: significantly enhanced
[1]; Poly(I:C) LMW for 4 days after negmiR transfection, then 10 days growth media
  expression of Myh6, Actn2 and Tnni3 in the control negmiR samples: induced expression
[2]; addition of Poly(I:C) (LMW) 1 ug/ml, colonies counted 14 days after transfection
  increase of the ability of miR combo to form spontaneously beating colonies: 3 fold
[2]; miR combo plus Poly(I:C), time after transfection
  time at which mature beating colonies were observed: within one week
[3]; Poly(I:C) LMW for 4 days, FIG. 7C
  number of Actn2(+) cells that formed in response to miR combo treatment: increased
[3]; miR combo plus Poly(I:C), inserts of FIGS. 7Bi-7Bvi
  sarcomere maturation: enhanced
[4]
  expression of cardiomyocyte-commitment factors Gata4, Hand2, Tbx5 and Mef2C: no effect

## ICR2: 2′F pyrimidine-incorporated 5′ppp RNA, blunt-ended hairpin, SEQ ID NO: 30: ggaug cggua ccuga cagca ucc (GGAUGCGGUACCUGACAGCAUCC; 2'-fluoro at CU, RNA at AG, 5' {ppp}, backbone not given here; blunt-ended hairpin)
[1]
  cardiomyocyte maturation (expression of Actn2, Myh6, Tnni3, Cacna1c): induced maturation; also recorded: activated cardiomyocyte maturation

## ICR4: 5′ppp 2′F ssRNA comprising multiple stem-loops, SEQ ID NO: 37: ggaug cggua ccuga cagca uccua aacuc auggu ccaug uuugu ccaug gacca (GGAUGCGGUACCUGACAGCAUCCUAAACUCAUGGUCCAUGUUUGUCCAUGGACCA; 2'-fluoro at CU, RNA at AG, 5' {ppp}, backbone not given here; single strand with multiple stem-loops)
[1]
  cardiomyocyte maturation (expression of Actn2, Myh6, Tnni3, Cacna1c): activated cardiomyocyte maturation

## O=C(N[C@H](Cc1ccccc1)C(=O)O)c1sc2cc(F)ccc2c1Cl [CU-CPT-4a]
TLR3
  effect of negmiR and miR combo upon IL6 secretion: completely ablated
[1]; CU-CPT-4a 10 μM for 4 days after miR combo transfection, then 6 days growth media
  effect of miR combo upon cardiomyocyte sarcomere gene expression: completely abolished
[1]; CU-CPT-4a 10 μM for 4 days after transfection, then 10 days growth media, FIGS. 1Bi-1Biii
  miR combo reprogramming with respect to the expression of Myh6, Actn2, and Tnni3: completely inhibited
[3]; CU-CPT-4a 10 μM, anti-Actn2 staining, FIGS. 1Ci-1Ciii
  ability of miR combo to generate mature cardiomyocytes with organized sarcomeres: completely inhibited
